Columns and labels:
[1] = Solid-form stability on storage at ambient temperature and humidity, XRPD analysis; assay type: physicochemical; conditions: for form conversion during storage: during storage (general description); for solid form by XRPD after storage: stored approximately two months, ambient temperature and humidity, hydrochloride
Excerpt: Tiagabine HCl Form K was stored for approximately two months under conditions of ambient temperature and humidity.

[2] = Moisture sorption/desorption (VTI SGA-100 moisture balance); assay type: physicochemical
Experimental: Moisture sorption/desorption data were collected on a VTI SGA-100 moisture balance system. For sorption isotherms, a sorption range of 5 to 95% relative humidity (RH) and a desorption range of 95 to 5% RH in 10% RH increments were used for analysis. The samples were not dried prior to analysis. Equilibrium criteria used for analysis were less than 0.0100% weight change in 5 minutes with a maximum equilibration time of 3 hours if the weight criterion was not met. Data were not corrected for the initial moisture content of the samples.

Row | Compound | form conversion during storage ([1]; listed as Tiagabine hydrochloride Form L) | solid form by XRPD after storage [1] | solid form by XRPD after moisture sorption/desorption ([2]; XRPD analysis of the sample after moisture sorption/desorption) | weight loss from 95% to 5% RH ([2]; desorption 95% to 5% RH) [%] | weight loss upon equilibration at 5% relative humidity (RH) ([2]; equilibration at 5% RH, sample not dried prior to analysis) [%] | weight gain from 5% to 95% RH ([2]; sorption 5% to 95% RH) [%] | form conversion during storage ([1]; listed as Tiagabine hydrochloride Form K)
1 | Cc1ccsc1C(=CCCN1CCC[C@@H](C(=O)O)C1)c1sccc1C.Cl [Tiagabine HCl Form L, tiagabine hydrochloride] | converts to a mixture of tiagabine hydrochloride Forms B and Q | a mixture of tiagabine HCl Forms B and Q | – | – | – | – | –
2 | Cc1ccsc1C(=CCCN1CCC[C@@H](C(=O)O)C1)c1sccc1C [Tiagabine free base Form A, (−)-(R)-1-(4,4-bis(3-methyl-2-thienyl)-3-butenyl)-3-piperidinecarboxylic acid] | – | – | tiagabine free base amorphous | 18.7 | 1.0 | 23.5 | –
3 | Cc1ccsc1C(=CCCN1CCC[C@@H](C(=O)O)C1)c1sccc1C.Cl [Tiagabine HCl Form K, tiagabine hydrochloride] | – | a mixture of tiagabine HCl Forms Q and B | – | – | – | – | converts to a mixture of tiagabine hydrochloride Forms Q and B

Source: US20080051435A1, “Crystalline and amorphous forms of tiagabine” (Cephalon, Inc., priority 2006, published 2008)
